# Data as given in patent publication US20050148553A1, “Use of tigecycline, alone, or in combination with rifampin to treat osteomyelitis and/or septic arthritis” (priority 2003, published 2005).
# Where two headings read alike, the source gives them in different places.
# Key:
# [1] = Adverse events and weight variance in infected treated rabbits
# Source text: All rabbits were monitored weekly for weight variance. […] The key for FIGS. 4A and B is as follows: Control=control group, no treatment; Vancomycin=subcutaneous vancomycin treated group; Vanco+Rifampin=subcutaneous vancomycin with oral rifampin treated group; Gar-936=subcutaneous Gar-936 treated group; Gar-936+Rifampin=subcutaneous Gar-936 with oral Rifampin treated group.
# Mycobacterium abscessus = type: in vivo, human; conditions: vertebral osteomyelitis patient
# Description: Debridement was accomplished after one year of infection with placement of hardware. […] The amikacin was later stopped due to renal damage. Linezolid and azithromycin were later added to the treatment regimen. The organism was determined to be resistant to moxifloxacin.
# The patient presented later with a new vertebral osteomyelitis just above the site of the old infection. A biopsy was performed and it was determined that no additional debridement was needed. […] Tigecycline was administered up to MIC 0.25 micrograms/ml. The patient's white blood cell count was normal while hypogammaglobulinemia was present and lymphocytic function decreased. The patient had also been under treatment with IL-12, but IL-12 was held during antibiotic treatment.
# [2] = tested on: vancomycin resistant E. faecium; conditions: cited from earlier work
# [3] = tested on: methicillin-resistant Staphylococcus aureus; conditions: 14 mg/kg bid; cited from earlier work
# [4] = for ratio of AUC in tissue to AUC in plasma: bone, bone marrow, salivary gland, thyroid, spleen, kidney (each)
# Description: Sprague-Dawley rats (18 males) were given carbon-14 tigecycline at a dosage of 3 mg/kg by 30-minute infusion. Concentrations or radioactivity were determined in tissues of 3 rats/time point at the end of the infusion and at 1, 8, 24, 72, and 168 hours after the end of infusion.
# [5] = Whole body autoradiography after 30-minute 3 mg/kg IV infusion of [^14C]-tigecycline; type: in vivo, Long-Evans rats
# Description: Male Sprague-Dawley and Long-Evans rats were obtained from Charles River Breeding Laboratories, Raleigh, N.C., and were quarantined for at least one week prior to the start of the study. […] The dosing solution was diluted and radioassayed directly in Ultima Gold scintillation counting cocktail (Packard Inc.). […] All pumps were calibrated prior to the administration of the compound. Rats were anesthetized with isoflurane prior to cardiac puncture exsanguination at the prescribed times after dosing. Sprague-Dawley and Long-Evans rats were sacrificed one per time point at 0.5, 8.5, 24, 72, 168 and 336 hr post-dose. Immediately following euthanasia, each rat was totally immersed in a bath of hexane and dry ice (−75° C.) until frozen. Each carcass was dried and stored at −30° C. until embedded. […] Each frozen rat was sagitally sectioned at −20° C. A sufficient number of sections were collected to ensure sampling of all tissues of interest. The sections were dehydrated overnight in a cryochamber and then rapidly transferred to a dessicator containing CaSO4 to prevent condensation of atmospheric moisture while equilibrating to room temperature. The sections were mounted on cardboard and labeled with [^14C]-labeled black ink with a unique identification number. […] A small piece of Scotch tape was placed over the dried radioactive ink to prevent the contamination of the storage phosphor screens. Phosphor imaging plates, BAS-SR 2025 (Fuji Photo Film Co., Japan) were exposed to bright visible light for 20 minutes using an IP eraser (Raytest, USA Inc., New Castle, Del.) to remove background radiation. Sections and calibration blood standards were concurrently placed in direct contact with Ips and exposed for 7 days. All sections were stored at room temperature in a lead shielding box to minimize background levels. Phosphor images were generated using a Fujifilm BAS-5000 Bio-Imaging Analyzer and quantitated by MCID M2 Software, version 3.2 (Imaging Research Inc., St. Catherines, Ontario, Canada). The STDs and QCs were analyzed using the circular sampling tool in the MCID software program. Areas of interest in whole-body sections were manually outlined with the regional sampling tool to generate count data. Radioactive concentrations in select tissues were determined by digital analysis of the resulting autoradiograms on the basis of a calibration curve. […] The linear regression curve was then used to determine the concentration of unknown radioactivity of study samples. […] Blood samples were combusted using a Model 307 sample oxidizer (Packard Instrument Company). […] Research Triangle Park, N.C.), which applies a model-independent approach and standard procedures as described in Gibaldi and Perrier. Gibaldi, Pharmacokinetics, 1982. […] For IV infusion dosing, C30 min was the concentration at 30 minutes, the first sampling time point. The maximum plasma concentration (Cmax) and the corresponding time of peak concentration following IV administration were obtained directly by numerical inspection from the individual concentration-time data. The terminal half-life was calculated by the ratio of ln2/λz where λz is derived from the terminal slope of the concentration time curve. The area under the plasma concentration versus time curve from zero to infinity was calculated using the trapezoidal rule, where Clast is the last measurable plasma concentration. Tissue to plasma concentration ratios were calculated according to the following equation: Ctissue/Cplasma, where Ctissue equals the drug concentration in tissue (ng equiv./g), and Cplasma equals the drug concentration in plasma (ng equiv./g).
smiles,measurement,setting,value
CN(C)c1cc(NC(=O)CNC(C)(C)C)c(O)c2c1C[C@H]1C[C@H]3[C@H](N(C)C)C(O)=C(C(N)=O)C(=O)[C@@]3(O)C(O)=C1C2=O [Tigecycline],symptoms of gastric dysfunction,[1]; approximately 1.0-1.5 weeks post-antibiotic initiation,mild to severe symptoms of gastric dysfunction
same,mean weight gain,[1]; infected rabbits after antibiotic treatment,-0.05 kg
same,rabbits that died before completion of treatment,"[1]; infected rabbits, 4 weeks treatment",5
same,dosage causing relevant morbidity and mortality,"[1]; rabbit model, data not shown",higher than 14 mg/kg per day
same,clinical outcome,Mycobacterium abscessus,doing well a year after the treatment
same,MIC,[2],0.125 mg/L
same,efficacy compared with 40 mg/kg vancomycin,[3],more effective
CN(C)c1cc(NC(=O)CNC(C)(C)C)c(O)c2c1C[C@H]1C[C@H]3[C@H](N(C)C)C(O)=C(C(N)=O)C(=O)[C@@]3(O)C(O)=C1C2=O [[^14C]-Tigecycline],ratio of AUC in tissue to AUC in plasma,[4],greater than 10
same,ratio of AUC in tissue to AUC in plasma,[4]; listed as carbon-14 tigecycline,> 10
same,ratio of AUC in lung to AUC in plasma,[4]; lung,4.4
same,AUC,[5]; Blood,21954 Ng eq hr/g
same,T1/2,[5]; Blood,62 h
same,Mean concentration of total radioactivity,"[5]; Blood, 0.5 Hrs",1296 ng equiv./g
same,Tissue:Plasma Ratio,"[5]; Blood, 0.5 Hrs",1.33
same,Mean concentration of total radioactivity,"[5]; Blood, 24 Hrs",340 ng equiv./g
same,Tissue:Plasma Ratio,"[5]; Blood, 24 Hrs",4.81
same,Mean concentration of total radioactivity,"[5]; Blood, 72 Hrs",11.8 ng equiv./g
same,Tissue:Plasma Ratio,"[5]; Blood, 72 Hrs",5.05
same,Mean concentration of total radioactivity,"[5]; Blood, 168 Hrs",2.72 ng equiv./g
same,Tissue:Plasma Ratio,"[5]; Blood, 168 Hrs",5.05
same,Mean concentration of total radioactivity,"[5]; Blood, 336 Hrs",1.24 ng equiv./g
same,AUC,"[5]; Blood, first AUC column",21843 Ng eq hr/g
same,AUC,[5]; Plasma,12938 Ng eq hr/g
same,T1/2,[5]; Plasma,19 h
same,Mean concentration of total radioactivity,"[5]; Plasma, 0.5 Hrs",975 ng equiv./g
same,Tissue:Plasma Ratio,"[5]; Plasma, 0.5 Hrs",1.00
same,Mean concentration of total radioactivity,"[5]; Plasma, 24 Hrs",70.5 ng equiv./g
same,Tissue:Plasma Ratio,"[5]; Plasma, 24 Hrs",1.00
same,Mean concentration of total radioactivity,"[5]; Plasma, 72 Hrs",4.31 ng equiv./g
same,Tissue:Plasma Ratio,"[5]; Plasma, 72 Hrs",1.00
same,Mean concentration of total radioactivity,"[5]; Plasma, 168 Hrs",<1.03 ng equiv./g
same,Tissue:Plasma Ratio,"[5]; Plasma, 168 Hrs",1.00
same,Mean concentration of total radioactivity,"[5]; Plasma, 336 Hrs",<1.03 ng equiv./g
same,AUC,"[5]; Plasma, first AUC column",12923 Ng eq hr/g
same,AUC,[5]; Skin,109296 Ng eq hr/g
same,Cmax,[5]; Skin,1997 Ng equiv/g
same,T1/2,[5]; Skin,473 h
same,tissue concentration at 336 hours as % of Cmax,[5]; Skin,8%
same,Mean concentration of total radioactivity,"[5]; Skin, 0.5 Hrs",2502 ng equiv./g
same,Tissue:Plasma Ratio,"[5]; Skin, 0.5 Hrs",2.05
same,Mean concentration of total radioactivity,"[5]; Skin, 24 Hrs",2363 ng equiv./g
same,Tissue:Plasma Ratio,"[5]; Skin, 24 Hrs",8.76
same,Mean concentration of total radioactivity,"[5]; Skin, 72 Hrs",1787 ng equiv./g
same,Tissue:Plasma Ratio,"[5]; Skin, 72 Hrs",179
same,Mean concentration of total radioactivity,"[5]; Skin, 168 Hrs",351 ng equiv./g
same,Tissue:Plasma Ratio,"[5]; Skin, 168 Hrs",179
same,Mean concentration of total radioactivity,"[5]; Skin, 336 Hrs",211 ng equiv./g
same,AUC,"[5]; Skin, first AUC column",58287 Ng eq hr/g
same,AUC,[5]; Uveal Tract,233288 Ng eq hr/g
same,Cmax,[5]; Uveal Tract,2502 Ng equiv/g
same,T1/2,[5]; Uveal Tract,201 h
same,tissue concentration at 336 hours as % of Cmax,[5]; Uveal Tract,1%
same,Mean concentration of total radioactivity,"[5]; Uveal Tract, 0.5 Hrs",1997 ng equiv./g
same,Tissue:Plasma Ratio,"[5]; Uveal Tract, 0.5 Hrs",2.57
same,Mean concentration of total radioactivity,"[5]; Uveal Tract, 24 Hrs",124 ng equiv./g
same,Tissue:Plasma Ratio,"[5]; Uveal Tract, 24 Hrs",25.7
same,Mean concentration of total radioactivity,"[5]; Uveal Tract, 72 Hrs",96.5 ng equiv./g
same,Tissue:Plasma Ratio,"[5]; Uveal Tract, 72 Hrs",393
same,Mean concentration of total radioactivity,"[5]; Uveal Tract, 168 Hrs",74.8 ng equiv./g
same,Tissue:Plasma Ratio,"[5]; Uveal Tract, 168 Hrs",393
same,Mean concentration of total radioactivity,"[5]; Uveal Tract, 336 Hrs",19.3 ng equiv./g
same,AUC,"[5]; Uveal Tract, first AUC column",131346 Ng eq hr/g
same,T1/2,"[5]; Uveal Tract, listed as [^14C]-tigecycline",20 h
